The subject of one series is nasal mucosa. The conditions noted are these: cited from earlier work.
For series [1] the following is noted: cited from earlier work.
A short description of series [2]: Solubilization of vasoconstricting agents in HFC propellants with lidocaine base; stability of the formulations. The conditions noted are these: for Behaviour of ethanol solution on addition of HFC-134a: ethanol solution also containing lidocaine free base; for Solubility in lidocaine base/HFC-134a solution: base form dissolved in ethanol (Formulations 11 and 12). Here is the method:
The formulations of this invention can be manufactured in different ways. In one method, the lidocaine and vasoconstricting agent are dissolved in the organic solvent and place in the aluminum canister which is then capped and pressure filled with propellant. Where an organic solvent is not required, the lidocaine and vasoconstricting agent are dissolved in the propellant which is then pressure filled into the closed empty aluminum canister.
These formulations are presented for exemplary purposes only and by no means limit the scope and content of the invention defined by the claims.

SMILES strings stand for the structures. Where a name gives a salt, the structure may show the parent alone.

As to `CNC[C@H](O)c1cccc(O)c1` [Phenylephrine], in the series on nasal mucosa, the “Decongestion of the nasal mucosa” value is given as “excellent decongestion”.

With `COC(=O)[C@H]1[C@@H](OC(=O)c2ccccc2)C[C@@H]2CC[C@H]1N2C` [Cocaine], the “Dose that may cause systemic toxicity” value in series [1] (even small doses) is given as “approximately 30 mg”. Besides, the Tolerability result in series [1] (most patients) is reported as “well tolerated by most patients”.

Take `CNC[C@H](O)c1cccc(O)c1` [phenylephrine hydrochloride, (R)-3-hydroxy-alpha-[(methylamino)methyl]benzene methanol hydrochloride]: the “Behaviour of ethyl alcohol solution on addition of HFC-134a” value (2.5% w/w in ethyl alcohol, HFC-134a, no lidocaine) is recorded as “precipitated out of solution”. In addition, under “HFC-134a and HFC-227, no lidocaine”, the “Solubility in HFC propellants” value was “insoluble”. Further, for the setting “HFC-134a, versus with lidocaine base, almost 50% more”, the “Additional ethyl alcohol required to maintain a solution in HFC-134a in the absence of lidocaine base” value was ~50%. In addition, where the note is “benzyl alcohol + HFC-134a, no lidocaine”, the “Solubility of combination with benzyl alcohol in HFC-134a” value is listed as “not soluble”. For the same compound, under “benzyl alcohol, HFC-134a added, no lidocaine”, the “Solubility in benzyl alcohol” value is on record as “remained in solution”. For the same compound, the “Solubility in diethylene glycol” value (diethylene glycol) is on record as “soluble”. Further, the “Solubility of combination with diethylene glycol in HFC-134a” value (diethylene glycol + HFC-134a, no lidocaine) is on record as “not soluble”. For the same compound, the “Solubility in propylene glycol” value (propylene glycol) is listed as “soluble”. Moreover, under “propylene glycol + HFC-134a, no lidocaine”, the “Solubility of combination with propylene glycol in HFC-134a” value is “not soluble”. For the same compound, the “Behaviour of ethanol solution on addition of HFC-134a” value in series [2] (HFC-134a) was “remained in solution”.

Take `OCc1ccccc1` [Benzyl alcohol]: under “HFC-134a, no lidocaine”, the “Solubility of organic solvent in HFC-134a” value is reported as “not soluble”.

In the case of `CNC[C@H](O)c1cccc(O)c1` [phenylephrine base], in series [2] (diethylene glycol, lidocaine base, HFC-134a), the “Clear and stable solution with phenylephrine base substituted for the hydrochloride in formulation 9” value was “Clear and stable solutions”.

For the compound `CCN(CC)CC(=O)Nc1c(C)cccc1C` [Lidocaine base, 2-(diethylamino)-2',6'-acetoxylidide], the “Vasoconstriction of the mucosa” value with nasal mucosa was “does not vasoconstrict the mucosa”. Besides, the “Behaviour of ethanol solution on addition of HFC-134a” value in series [2] (HFC-134a) is recorded as “remained in solution”.

On to `COc1ccc(OC)c(C(O)C(C)N)c1` (stereo not shown) [methoxamine], for which the “Solubility in lidocaine base/HFC-134a solution” value in series [2] was “readily soluble”.

`CC(N)C(O)c1ccccc1` (stereo not shown) [phenylpropanolamine]: in series [2], the “Solubility in lidocaine base/HFC-134a solution” value was “readily soluble”.

Source of the values: patent US5534242A, “Lidocaine-vasoconstrictor aerosol preparation” (priority 1995, dated 1996).
